“And” between values parts separate entries of the source, which are not always exact repeats. Identical values can stand only once.
Experiments:
Format in all cases: biochemical
mAC1 = target: T1, mAC1 (Homo sapiens, UniProt Q08828); experiment: AC assay, Gsα-stimulated mAC1 in membranes from transfected HEK293 cells; details: 20 µM fatty acid; 300 nM Gsα; single experiments
T1 construct: Human mAC genes were from GenScript and fitted with a C-terminal FLAG-tag; FLAG (C); made in house; host or cells: HEK293, permanently transfected; membrane preparation
Method: (§1) hAC sequences were from NCBI were: ADCY1: NM_021116.3; ADCY2: NM_020546.2; ADCY3: NM_004036.4; ADCY4: NM_001198568.2; ADCY5: NM_183357.2; ADCY6: NM_015270.4; ADCY7: NM_001114.4; ADCY8: NM_001115.2; ADCY9: NM_001116.3. Human mAC genes were from GenScript and fitted with a C-terminal FLAG-tag. […] The gene was synthesized by GenScript. HEK293 cells were maintained in Dulbeccos Modified Eagle Medium (DMEM) with 10% fetal bovine serum at 37°C and 5% CO2. Transfection with AC plasmids was with PolyJet (SignaGen, Frederick, MD, USA). Permanent cell lines were generated by selection for 7 days with 600 µg/ml G418 and maintained with 300 µg/ml For membrane preparation, cells were tyrpsinized, collected by centrifugation (3000 × g, 5 min) and lysed and homogenized in 20 mM HEPES, pH 7.5, 1 mM Ethylenediaminetetraacetic acid (EDTA), 2 mM MgCl2, 1 mM Dithiothreitol (DTT), one tablet of cOmplete, EDTA-free (per 50 ml) and 250 mM sucrose by 20 strokes in a potter homogenizer on ice. Debris was removed (5 min at 1000 × g, 0°C), membranes were collected at 100,000 × g, 60 min at 0°C, suspended and stored at −80°C in 20 mM MOPS, pH 7.5, 0.5 mM EDTA, 2 mM MgCl2. […] Three cerebral cortices were dissected and homogenized in 4.5 ml cold 48 mM Tris–HCl, pH 7.4, 12 mM MgC1_2, and 0.1 mM Ethylene glycol-bis(β-aminoethyl ether)-N,N,N′,N′-tetraacetic acid (EGTA) with a Polytron hand disperser (Kinematica AG, Switzerland). […] The pellet was washed once with 5 ml 1 mM KHCO3. The final suspension in 2 ml 1 mM KHCO3 was stored in aliquots at −80°C.
(§2) In a volume of 10 μl, AC activities were measured using 1 mM ATP, 2 mM MgCl2, 3 mM creatine phosphate, 60 μg/ml creatine kinase, and 50 mM MOPS pH 7.5. The cAMP assay kit from Cisbio (Codolet, France) was used for detection according to the supplier’s instructions. For each assay, a cAMP standard curve was established. EC50 and IC50 values were calculated by GraphPad Prism version 8.4.3 for Windows, GraphPad Software, San Diego, CA, USA, https://www.graphpad.com .

mAC2 = target: T2, mAC2 (Homo sapiens, UniProt Q08462); experiment: AC assay, Gsα-stimulated mAC2 in membranes from transfected HEK293 cells; details: Figure 5-figure supplement 1 left, 20 µM
T2 construct: Human mAC genes were from GenScript and fitted with a C-terminal FLAG-tag; FLAG (C); made in house; host or cells: HEK293, permanently transfected; membrane preparation
Method: as §1, §2

mAC3 = target: T3, mAC3 (Homo sapiens, UniProt O60266); experiment: AC assay, Gsα-stimulated mAC3 in membranes from transfected HEK293 cells; details: for mAC3 activity [%] (100% = 300nM Gsα stimulation): fatty acid 20 µM, individual experiments
T3 construct: Human mAC genes were from GenScript and fitted with a C-terminal FLAG-tag; FLAG (C); made in house; host or cells: HEK293, permanently transfected; membrane preparation
Method: as §1, §2

mAC4 = target: T4, mAC4 (Homo sapiens, UniProt Q8NFM4); experiment: AC assay, Gsα-stimulated mAC4 in membranes from transfected HEK293 cells; details: 20 µM fatty acid; 300 nM Gsα; single experiments
T4 construct: Human mAC genes were from GenScript and fitted with a C-terminal FLAG-tag; FLAG (C); made in house; host or cells: HEK293, permanently transfected; membrane preparation
T4 sequence (Q8NFM4 1-1077): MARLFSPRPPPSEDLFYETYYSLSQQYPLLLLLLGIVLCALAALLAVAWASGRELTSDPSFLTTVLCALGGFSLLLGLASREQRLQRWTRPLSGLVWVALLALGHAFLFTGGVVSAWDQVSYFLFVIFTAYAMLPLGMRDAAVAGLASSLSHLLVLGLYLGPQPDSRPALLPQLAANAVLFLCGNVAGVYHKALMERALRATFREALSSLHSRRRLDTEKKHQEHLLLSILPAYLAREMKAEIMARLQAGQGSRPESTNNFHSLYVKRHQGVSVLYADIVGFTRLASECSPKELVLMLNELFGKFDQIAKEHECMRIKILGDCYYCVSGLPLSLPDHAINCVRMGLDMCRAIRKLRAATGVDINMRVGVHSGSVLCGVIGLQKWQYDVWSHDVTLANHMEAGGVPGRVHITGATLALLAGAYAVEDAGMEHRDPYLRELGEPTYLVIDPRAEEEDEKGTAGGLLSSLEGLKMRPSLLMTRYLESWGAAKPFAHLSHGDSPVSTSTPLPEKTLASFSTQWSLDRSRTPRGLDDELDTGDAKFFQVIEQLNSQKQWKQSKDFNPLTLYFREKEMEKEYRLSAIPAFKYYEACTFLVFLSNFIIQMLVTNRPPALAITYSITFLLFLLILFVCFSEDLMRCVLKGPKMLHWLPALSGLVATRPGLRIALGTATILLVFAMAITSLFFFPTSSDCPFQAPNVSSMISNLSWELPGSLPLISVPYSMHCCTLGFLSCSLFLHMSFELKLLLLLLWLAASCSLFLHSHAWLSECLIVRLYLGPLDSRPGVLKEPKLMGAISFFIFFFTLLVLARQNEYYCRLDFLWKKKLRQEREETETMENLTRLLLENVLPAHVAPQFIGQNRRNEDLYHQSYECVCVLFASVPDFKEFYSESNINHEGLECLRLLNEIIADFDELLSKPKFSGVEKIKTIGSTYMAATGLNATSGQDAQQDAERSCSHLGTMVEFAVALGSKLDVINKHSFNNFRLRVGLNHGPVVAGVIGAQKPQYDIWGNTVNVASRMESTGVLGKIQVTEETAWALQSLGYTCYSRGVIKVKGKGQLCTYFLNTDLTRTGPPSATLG
Method: as §1, §2

mAC5 = target: T5, mAC5 (Homo sapiens, UniProt O95622); experiment: AC assay, Gsα-stimulated mAC5 in membranes from transfected HEK293 cells; details: 20µM fatty acid concentration
T5 construct: Human mAC genes were from GenScript and fitted with a C-terminal FLAG-tag; FLAG (C); made in house; host or cells: HEK293, permanently transfected; membrane preparation
Method: as §1, §2

mAC6 = target: T6, mAC6 (Homo sapiens, UniProt O43306); experiment: AC assay, Gsα-stimulated mAC6 in membranes from transfected HEK293 cells; details: 20µM fatty acid concentration
T6 construct: Human mAC genes were from GenScript and fitted with a C-terminal FLAG-tag; FLAG (C); made in house; host or cells: HEK293, permanently transfected; membrane preparation
Method: as §1, §2

mAC9 = target: T7, mAC9 (Homo sapiens, UniProt O60503); experiment: AC assay, Gsα-stimulated mAC9 in membranes from transfected HEK293 cells; details: 300 nM Gsα, single experiments
T7 construct: Human mAC genes were from GenScript and fitted with a C-terminal FLAG-tag; FLAG (C); made in house; host or cells: HEK293, permanently transfected; membrane preparation
Method: as §1, §2

mAC7 = target: T8, mAC7 (Homo sapiens, UniProt P51828); experiment: AC assay, Gsα-stimulated mAC7 in membranes from transfected HEK293 cells; details: Figure 5-figure supplement 2 left, 20 µM
T8 construct: Human mAC genes were from GenScript and fitted with a C-terminal FLAG-tag; FLAG (C); made in house; host or cells: HEK293, permanently transfected; membrane preparation
Method: as §1, §2

T8 sequence (P51828 whole entry): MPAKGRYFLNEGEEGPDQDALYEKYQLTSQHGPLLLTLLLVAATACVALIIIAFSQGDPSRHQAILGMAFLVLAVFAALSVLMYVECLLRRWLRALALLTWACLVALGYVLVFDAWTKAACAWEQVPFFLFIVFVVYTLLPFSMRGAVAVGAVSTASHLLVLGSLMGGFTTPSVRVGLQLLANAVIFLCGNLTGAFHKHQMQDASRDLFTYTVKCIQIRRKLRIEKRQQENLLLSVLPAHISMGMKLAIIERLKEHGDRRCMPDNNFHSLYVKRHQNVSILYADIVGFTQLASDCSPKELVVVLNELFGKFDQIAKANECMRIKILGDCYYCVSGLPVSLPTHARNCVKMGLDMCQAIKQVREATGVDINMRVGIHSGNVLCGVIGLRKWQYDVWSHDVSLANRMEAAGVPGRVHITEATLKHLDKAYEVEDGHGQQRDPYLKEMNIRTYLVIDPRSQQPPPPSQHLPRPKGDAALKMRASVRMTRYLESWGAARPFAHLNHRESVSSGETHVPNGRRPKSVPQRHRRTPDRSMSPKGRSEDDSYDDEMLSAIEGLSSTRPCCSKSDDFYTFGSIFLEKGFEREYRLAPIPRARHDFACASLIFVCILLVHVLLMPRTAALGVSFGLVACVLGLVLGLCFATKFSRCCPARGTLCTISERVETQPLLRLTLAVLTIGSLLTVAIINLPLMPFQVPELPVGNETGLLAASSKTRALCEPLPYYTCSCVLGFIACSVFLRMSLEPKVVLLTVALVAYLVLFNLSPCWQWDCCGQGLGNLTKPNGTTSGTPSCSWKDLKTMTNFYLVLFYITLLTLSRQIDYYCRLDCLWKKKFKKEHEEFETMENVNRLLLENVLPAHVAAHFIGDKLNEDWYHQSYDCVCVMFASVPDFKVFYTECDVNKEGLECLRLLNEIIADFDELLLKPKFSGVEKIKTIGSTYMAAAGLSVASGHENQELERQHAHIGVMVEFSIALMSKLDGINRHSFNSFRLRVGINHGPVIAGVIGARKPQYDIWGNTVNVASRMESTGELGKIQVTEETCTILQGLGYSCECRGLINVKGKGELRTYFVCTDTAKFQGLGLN
T8 sequence (P63092 2-394 Q227L partner): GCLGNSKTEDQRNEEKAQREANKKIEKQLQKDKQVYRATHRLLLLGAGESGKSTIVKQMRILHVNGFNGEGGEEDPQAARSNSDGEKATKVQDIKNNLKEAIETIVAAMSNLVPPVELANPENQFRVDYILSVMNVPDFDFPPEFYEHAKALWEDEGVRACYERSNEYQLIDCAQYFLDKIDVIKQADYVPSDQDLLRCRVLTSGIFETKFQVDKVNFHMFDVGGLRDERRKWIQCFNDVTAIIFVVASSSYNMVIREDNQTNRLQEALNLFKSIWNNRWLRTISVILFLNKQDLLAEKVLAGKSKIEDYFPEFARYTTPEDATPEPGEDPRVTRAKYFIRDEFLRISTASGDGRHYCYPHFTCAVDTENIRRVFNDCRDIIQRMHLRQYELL
T1 sequence (Q08828 whole entry): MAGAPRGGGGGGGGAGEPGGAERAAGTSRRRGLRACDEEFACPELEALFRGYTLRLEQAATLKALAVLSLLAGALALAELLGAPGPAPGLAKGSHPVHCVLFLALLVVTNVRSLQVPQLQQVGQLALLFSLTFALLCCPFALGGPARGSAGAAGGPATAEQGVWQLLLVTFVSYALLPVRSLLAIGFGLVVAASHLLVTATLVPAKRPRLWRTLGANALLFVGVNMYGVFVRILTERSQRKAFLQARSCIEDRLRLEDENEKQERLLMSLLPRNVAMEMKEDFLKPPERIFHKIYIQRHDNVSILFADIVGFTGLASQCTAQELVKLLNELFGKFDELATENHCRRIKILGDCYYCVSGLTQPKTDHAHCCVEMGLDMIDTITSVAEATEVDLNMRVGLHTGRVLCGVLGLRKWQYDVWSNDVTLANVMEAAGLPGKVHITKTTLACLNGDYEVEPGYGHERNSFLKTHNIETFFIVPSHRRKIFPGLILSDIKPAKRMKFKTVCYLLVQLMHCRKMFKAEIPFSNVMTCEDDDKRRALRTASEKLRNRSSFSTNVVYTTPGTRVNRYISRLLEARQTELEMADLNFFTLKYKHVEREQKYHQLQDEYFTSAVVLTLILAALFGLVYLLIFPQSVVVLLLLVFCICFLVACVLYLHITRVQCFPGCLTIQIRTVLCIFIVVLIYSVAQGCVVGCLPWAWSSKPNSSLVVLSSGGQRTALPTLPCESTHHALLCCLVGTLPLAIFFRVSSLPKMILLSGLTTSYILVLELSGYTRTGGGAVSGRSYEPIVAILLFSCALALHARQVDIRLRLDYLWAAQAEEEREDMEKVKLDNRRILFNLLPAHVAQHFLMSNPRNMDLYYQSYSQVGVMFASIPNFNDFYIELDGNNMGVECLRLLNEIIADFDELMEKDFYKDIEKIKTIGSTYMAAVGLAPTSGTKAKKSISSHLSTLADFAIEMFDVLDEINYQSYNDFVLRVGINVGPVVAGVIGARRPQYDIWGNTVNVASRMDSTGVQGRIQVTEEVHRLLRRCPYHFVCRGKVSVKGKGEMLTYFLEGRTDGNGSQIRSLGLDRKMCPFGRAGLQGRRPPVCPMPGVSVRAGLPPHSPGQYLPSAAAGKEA
T7 sequence (O60503 whole entry): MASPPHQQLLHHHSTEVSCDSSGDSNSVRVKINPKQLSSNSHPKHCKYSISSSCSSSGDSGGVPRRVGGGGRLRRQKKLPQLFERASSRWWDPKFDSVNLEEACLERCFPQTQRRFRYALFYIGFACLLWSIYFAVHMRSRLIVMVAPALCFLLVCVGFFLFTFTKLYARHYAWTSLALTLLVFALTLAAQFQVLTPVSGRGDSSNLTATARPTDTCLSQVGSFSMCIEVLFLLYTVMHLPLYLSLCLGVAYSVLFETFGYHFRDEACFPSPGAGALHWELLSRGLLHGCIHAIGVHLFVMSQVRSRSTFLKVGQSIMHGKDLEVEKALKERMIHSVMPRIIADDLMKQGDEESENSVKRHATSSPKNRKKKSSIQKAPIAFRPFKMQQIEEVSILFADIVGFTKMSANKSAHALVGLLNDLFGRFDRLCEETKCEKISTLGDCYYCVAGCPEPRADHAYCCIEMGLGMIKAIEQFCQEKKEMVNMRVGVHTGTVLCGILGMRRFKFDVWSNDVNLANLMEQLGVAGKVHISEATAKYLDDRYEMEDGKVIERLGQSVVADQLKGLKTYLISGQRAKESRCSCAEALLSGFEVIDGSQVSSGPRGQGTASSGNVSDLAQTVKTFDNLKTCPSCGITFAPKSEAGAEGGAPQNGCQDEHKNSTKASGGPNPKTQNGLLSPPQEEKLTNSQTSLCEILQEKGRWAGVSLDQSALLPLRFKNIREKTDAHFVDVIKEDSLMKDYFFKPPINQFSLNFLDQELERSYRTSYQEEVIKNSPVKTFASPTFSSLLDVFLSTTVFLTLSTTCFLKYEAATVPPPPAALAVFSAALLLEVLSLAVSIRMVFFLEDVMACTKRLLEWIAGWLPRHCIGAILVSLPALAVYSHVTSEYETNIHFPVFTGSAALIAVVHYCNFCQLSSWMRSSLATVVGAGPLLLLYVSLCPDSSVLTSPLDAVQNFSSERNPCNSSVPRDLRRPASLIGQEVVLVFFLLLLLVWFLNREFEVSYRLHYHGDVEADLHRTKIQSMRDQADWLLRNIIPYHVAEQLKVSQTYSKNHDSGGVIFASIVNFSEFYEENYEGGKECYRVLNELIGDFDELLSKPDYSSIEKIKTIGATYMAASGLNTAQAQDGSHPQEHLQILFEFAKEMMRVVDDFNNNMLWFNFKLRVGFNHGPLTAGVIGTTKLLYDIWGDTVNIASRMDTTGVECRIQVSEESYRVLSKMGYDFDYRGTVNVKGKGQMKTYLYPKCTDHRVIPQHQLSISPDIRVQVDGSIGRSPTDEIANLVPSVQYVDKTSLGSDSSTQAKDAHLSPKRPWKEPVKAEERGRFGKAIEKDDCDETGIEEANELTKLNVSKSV
T7 sequence (P63092 2-394 Q227L partner): as the sequence (P63092 2-394 Q227L partner) above
T2 sequence (Q08462 whole entry): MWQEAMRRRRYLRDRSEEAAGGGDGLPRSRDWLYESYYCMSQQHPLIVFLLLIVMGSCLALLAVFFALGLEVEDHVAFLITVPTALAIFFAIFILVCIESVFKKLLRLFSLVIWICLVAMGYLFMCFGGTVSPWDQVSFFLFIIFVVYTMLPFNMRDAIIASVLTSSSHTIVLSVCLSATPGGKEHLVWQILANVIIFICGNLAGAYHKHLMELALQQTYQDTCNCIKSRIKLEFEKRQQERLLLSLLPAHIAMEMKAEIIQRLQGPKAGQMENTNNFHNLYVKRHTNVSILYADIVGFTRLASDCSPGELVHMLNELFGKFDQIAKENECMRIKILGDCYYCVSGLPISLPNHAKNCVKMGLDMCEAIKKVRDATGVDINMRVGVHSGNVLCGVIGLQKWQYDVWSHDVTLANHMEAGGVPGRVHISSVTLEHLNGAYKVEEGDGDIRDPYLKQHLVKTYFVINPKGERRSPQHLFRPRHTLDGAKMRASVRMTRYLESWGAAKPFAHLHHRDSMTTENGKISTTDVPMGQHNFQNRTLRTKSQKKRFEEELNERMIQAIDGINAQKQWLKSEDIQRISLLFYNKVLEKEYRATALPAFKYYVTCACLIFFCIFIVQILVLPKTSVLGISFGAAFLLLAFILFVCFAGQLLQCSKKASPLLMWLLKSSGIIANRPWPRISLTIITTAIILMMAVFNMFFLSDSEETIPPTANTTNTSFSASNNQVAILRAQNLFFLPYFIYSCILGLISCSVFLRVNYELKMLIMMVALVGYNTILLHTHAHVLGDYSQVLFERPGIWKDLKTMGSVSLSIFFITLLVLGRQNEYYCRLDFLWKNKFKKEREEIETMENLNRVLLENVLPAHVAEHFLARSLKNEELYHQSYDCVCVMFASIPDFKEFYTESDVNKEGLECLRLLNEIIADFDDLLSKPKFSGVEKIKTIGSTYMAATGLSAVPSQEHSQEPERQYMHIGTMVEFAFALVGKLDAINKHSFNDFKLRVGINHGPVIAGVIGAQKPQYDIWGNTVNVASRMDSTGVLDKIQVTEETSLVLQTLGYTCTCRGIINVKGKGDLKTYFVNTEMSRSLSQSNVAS
T2 sequence (P63092 2-394 Q227L partner): as the sequence (P63092 2-394 Q227L partner) above

**Q.** With `CC/C=C\C/C=C\C/C=C\CCCCCCCC(=O)O` [Linolenic acid, Linolenic ((9Z,12Z,15Z)-octadecatrienoic) acid] as the compound, how does the “mAC1 activity [%] (100% = 300nM Gsα stimulation); 20µM fatty acid concentration” value (from here on “mAC1 activity [%]”) (mAC1) read?
**A.** 63% and 90%

**Q.** And the “mAC2 activity [%] (100% = 300nM Gsα stimulation); 20µM fatty acid concentration” value (from here on “mAC2 activity [%]”) (mAC2)?
**A.** 99% and 105%

**Q.** What about the “Effect of lipid on 300 nM Gsα-stimulated mAC3” value (mAC3; 20 µM, in words) of the same compound?
**A.** less efficacious

**Q.** What about the “mAC3 activity [%] (100% = 300nM Gsα stimulation)” value (from here on “mAC3 activity [%]”) (mAC3) of the same compound?
**A.** 159% and 177% and 241% and 105% and 288% and 273%

**Q.** And the “mAC4 activity [%] (100% = 300nM Gsα stimulation); 20µM fatty acid concentration” value (“mAC4 activity [%]” below) (mAC4)?
**A.** 62% and 65% and 86%

**Q.** And the “mAC5 activity [%] (100% = 300nM Gsα stimulation)” value (“mAC5 activity [%]” for short) (mAC5)?
**A.** 79% and 81%

**Q.** What about the “mAC6 activity [%] (100% = 300nM Gsα stimulation)” value (“mAC6 activity [%]” below) (mAC6) of the same compound?
**A.** 103% and 104%

**Q.** What about the “mAC9 activity (%);(100% = Gsα stimulation) stimulated by 300nM Gsα” value (mAC9; 3 µM fatty acid) of the same compound?
**A.** 144% and 110% and 75%

**Q.** What about the “mAC9 activity (%);(100% = Gsα stimulation) stimulated by 300nM Gsα” value (mAC9; 6 µM fatty acid) of the same compound?
**A.** 125% and 149% and 124% and 119% and 96%

**Q.** How did the “mAC1 activity [%]” value (mAC1) turn out when `CCCCCCCC/C=C\CCCCCCCC(=O)OC` [Me-Oleate, Methyl oleate] was run?
**A.** 99% and 63%

**Q.** And the “mAC2 activity [%]” value (mAC2)?
**A.** 121% and 73%

**Q.** And the “mAC3 activity [%]” value (mAC3)?
**A.** 141% and 90%

**Q.** What about the “mAC4 activity [%]” value (mAC4) of the same compound?
**A.** 77% and 99%

**Q.** And the “mAC5 activity [%]” value (mAC5)?
**A.** 60% and 91%

**Q.** And the “mAC6 activity [%]” value (mAC6)?
**A.** 78% and 90%

**Q.** What about the “mAC7 activity [%] (100% = 300nM Gsα stimulation); 20µM fatty acid concentration” value (mAC7) of the same compound?
**A.** 115% and 85%

**Q.** And the “mAC9 activity [%] (100% = 300nM Gsα stimulation); 20µM fatty acid concentration” value (mAC9)?
**A.** 86% and 143%

**Q.** For `O=C(O)CCCCCCCCCCCCCCCCCCC(=O)O` [Octadecane-(COOH)2, 1,18-Octadecanedicarboxylic acid], which “mAC1 activity [%]” value (mAC1) is on record?
**A.** 88% and 87% and 108%

**Q.** What about the “mAC2 activity [%]” value (mAC2) of the same compound?
**A.** 101% and 81% and 91%

**Q.** What about the “mAC3 activity [%]” value (mAC3) of the same compound?
**A.** 104% and 106% and 66%

**Q.** And the “mAC4 activity [%]” value (mAC4)?
**A.** 91% and 73%

**Q.** And the “mAC5 activity [%]” value (mAC5)?
**A.** 102% and 118% and 78%

**Q.** What about the “mAC6 activity [%]” value (mAC6) of the same compound?
**A.** 83% and 136% and 76%

**Q.** What about the “mAC7 activity [%] (100% = 300nM Gsα stimulation); 20µM fatty acid concentration” value (mAC7) of the same compound?
**A.** 81% and 97%

**Q.** What about the “mAC9 activity [%] (100% = 300nM Gsα stimulation); 20µM fatty acid concentration” value (mAC9) of the same compound?
**A.** 102% and 67%

**Q.** What does the source list for Triolein?
**A.** mAC3 activity [%] (100% = 300nM Gsα stimulation) (mAC3): 96%; mAC5 activity [%] (100% = 300nM Gsα stimulation) (mAC5): 95%; mAC7 activity [%] (100% = 300nM Gsα stimulation); 20µM fatty acid concentration (mAC7): 83%; mAC9 activity [%] (100% = 300nM Gsα stimulation); 20µM fatty acid concentration (mAC9): 107%

— publication PMC11606603, “The membrane domains of mammalian adenylyl cyclases are lipid receptors” (eLife, 2024)
